# Reference: PMC10403075, “Short hydrocarbon stapled ApoC2-mimetic peptides activate lipoprotein lipase and lower plasma triglycerides in mice” (Frontiers in Cardiovascular Medicine, 2023)
# Where two headings read alike, the source gives them in different places. Residues, ends and D or L forms follow the SMILES beside them.
# Assays:
# LPL from bovine milk [1] = molecular target: T1, LPL from bovine milk (Bos taurus, UniProt P11151); assay: In vitro LPL activity assay (NEFA generation, ApoC2-deficient plasma substrate); type: biochemical
# T1 construct: LPL from bovine milk (Sigma-Aldrich); purchased Sigma-Aldrich; host or cells: bovine milk (natural source)
# T1 sequence (P11151 29-478): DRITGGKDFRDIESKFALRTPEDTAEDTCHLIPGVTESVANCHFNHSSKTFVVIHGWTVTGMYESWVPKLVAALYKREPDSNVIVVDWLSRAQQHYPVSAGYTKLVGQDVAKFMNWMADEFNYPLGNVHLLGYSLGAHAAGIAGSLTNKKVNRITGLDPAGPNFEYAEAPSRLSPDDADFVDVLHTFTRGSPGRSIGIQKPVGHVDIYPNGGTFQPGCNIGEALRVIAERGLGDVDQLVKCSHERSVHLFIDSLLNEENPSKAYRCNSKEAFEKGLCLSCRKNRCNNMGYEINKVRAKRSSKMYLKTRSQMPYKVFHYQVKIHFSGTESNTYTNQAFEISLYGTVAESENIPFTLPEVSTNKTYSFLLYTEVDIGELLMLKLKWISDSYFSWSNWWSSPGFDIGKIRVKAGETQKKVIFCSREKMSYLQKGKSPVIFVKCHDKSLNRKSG
# Method: (§1) LPL activity was determined by measuring the generation of non-esterified fatty acids (NEFA). In a 96-well plate, 0–2 µM of an ApoC2 mimetic peptide, 0.83 nM of LPL from bovine milk (Sigma-Aldrich), ApoC2-deficient ethylenediaminetetraacetic acid (EDTA)-plasma (diluted with PBS to a final TG concentration of 0.67 mg/dl), 2 IU/ml heparin, 0.2% fatty acids free bovine serum albumin (BSA) (ICN Biomedicals), and PBS (Life Technologies) were combined in a final reaction volume of 50 μl. The reaction mixture was pre-incubated on ice for 30 min and incubated at 37°C for 1 h. NEFA were measured with a coupled enzyme reaction (Wako Diagnostics) in a Synergy H1 microplate reader (BioTek, USA).
# human LPL = molecular target: T2, human LPL (Homo sapiens, UniProt P06858); assay: Isothermal titration calorimetry LPL activity assay in pooled human plasma; type: biochemical; conditions: normolipidemic pooled human EDTA-plasma nearly undiluted, 1 nM human LPL injections, 25°C, initial rate, on top of endogenous activators, triplicates
# T2 sequence (P06858 28-475): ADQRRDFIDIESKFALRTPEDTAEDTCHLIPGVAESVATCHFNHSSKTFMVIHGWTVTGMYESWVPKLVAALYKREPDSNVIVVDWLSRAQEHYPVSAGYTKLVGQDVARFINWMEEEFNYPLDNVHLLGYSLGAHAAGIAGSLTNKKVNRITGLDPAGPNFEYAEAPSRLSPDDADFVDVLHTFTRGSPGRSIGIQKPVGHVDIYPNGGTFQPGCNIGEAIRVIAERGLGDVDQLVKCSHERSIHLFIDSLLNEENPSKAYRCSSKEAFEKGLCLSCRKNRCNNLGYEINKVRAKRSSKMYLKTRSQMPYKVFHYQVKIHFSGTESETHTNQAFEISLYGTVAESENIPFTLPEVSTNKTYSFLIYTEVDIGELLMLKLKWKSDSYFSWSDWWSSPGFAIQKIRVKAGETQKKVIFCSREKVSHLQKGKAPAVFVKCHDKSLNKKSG
# Method: Isothermal titration calorimetry (ITC) measurements, which depends upon the initial rate of reaction, were performed to assess peptide activation of LPL in nearly undiluted human plasma as previously described ([22], [23]). Peptides in 20 mM TRIS, pH 8.2 at the indicated concentrations were added to a normolipidemic EDTA-plasma pool. The reaction was initiated by three sequential injections of 1 nM human LPL. The heat of the reaction was monitored with the iTC200 calorimeter (GE Healthcare, USA) and the initial reaction rates at 25°C were converted into relative activity units.
# [2] = Circular dichroism spectroscopy; type: physicochemical; conditions: CD 190-250 nm, 0.1 cm cell, calculated from spectrum
# Method: Circular dichroism (CD) spectra were acquired on a Chirascan Q100 spectrometer. CD spectra were recorded in the190–250 nm range, using a 0.1 cm quartz cell and analyzed with Bettsele® on-line software ([24]).
# trypsin = assay: Peptide proteolysis resistance, trypsin; type: in vitro ADME; conditions: peptide 0.1 mM, 10 ug/ml trypsin, 20 mM ammonium bicarbonate pH 8.2, 37°C, MALDI-TOF with internal standards, first time point 3 h, triplicates
# Method: (§2) Peptides (0.1 mM) were incubated at 37°C in 20 mM ammonium bicarbonate buffer at pH 8.2, with 10 ug/ml trypsin or […] Proteinase K. To test resistance to Pepsin, peptides (0.1 mM) were incubated with Pepsin (3 mg/ml) in 0.02M acetate buffer (pH 2). The amount of intact peptide was monitored over time by Matrix-assisted laser desorption/ionization time-of-flight (MALDI-TOF) on a Bruker Autoflex III instrument (Bruker Optics, Inc., USA). Internal standards (Bombesin, ACTH (1–17), ACTH (18–39) and Insulin) were used to quantify the relative amount of peptide in each sample.
# Proteinase K = Proteinase K (Parengyodontium album, UniProt P06873); type: in vitro ADME
# Method: as §2
# Pepsin = assay: Peptide proteolysis resistance, pepsin; type: in vitro ADME; conditions: peptide 0.1 mM, pepsin 3 mg/ml, 0.02M acetate buffer pH 2, 1 h, MALDI-TOF with internal standards, triplicates
# Method: as §2
# LPL from bovine milk [3] = molecular target: T1, LPL from bovine milk; assay: In vitro LPL activation assay after pepsin treatment; type: biochemical; conditions: 1 h pepsin at pH 2, then pH neutralised; compared with untreated peptide, area-under-the-curve, triplicates
# Method: as §1, §2
# Figure 4 Peptide proteolysis resistance. […]
# Apoc2^h/h mice [4] = assay: Plasma lipids in ApoC2-hypomorphic mice after peptide injection; type: in vivo, mouse; conditions: single IP 1 umole/kg, n = 4
# Method: ApoC2–hypomorphic mice (Apoc2^h/h) ([25]) and human ApoC3-transgenic (hAPOC3-tg) mice ([26]) were fed a regular rodent chow diet (NIH-31 chow diet: Zeigler Brothers Inc.). Peptides dissolved in 20 mM TRIS (pH 8.2) or vehicle control were injected intraperitoneally or intravenously at the indicated concentrations. Blood samples were collected from the retro-orbital sinus with a heparinized capillary tube. Whole blood was centrifuged at 1,000 g for 20 min at 4°C to obtain plasma. All animal procedures were approved by the National Heart, Lung, and Blood Institute Animal Care and Use Committee (protocol #H-0050).
# Apoc2^h/h mice [5] = conditions: ApoC2 hypomorphic mice, single intravenous injection, within a few hours; cited from earlier work
# From the text: (§3) We recently developed a bi-helical ApoC2 mimetic peptide called D6PV that contains 41 amino acids ([16]). ApoC2 mimetic peptides could potentially be used as a treatment for pancreatitis in patients with genetic APOC2 deficiency and for the prevention of cardiovascular disease in patients with moderate elevations in plasma triglycerides ([1]). […] Except for one amino acid substitution, the secon ...
# hAPOC3-tg mice = conditions: ApoC3 transgenic mice; cited from earlier work
# From the text: as §3
# [6] = DMPC vesicle clearance (solubilization) assay; type: physicochemical; conditions: peptide 0-100 µM in 20 mM TRIS pH 8.2, DMPC vesicles 0.5 mg/ml in PBS, absorbance 660 nm, 1 h, 24°C
# Method: Dimyristoyl Phosphatidyl Choline (DMPC) (Avanti 850345C) vesicles were made by sonication (0.5 mg/ml) in phosphate buffer saline (PBS). Peptides (0, 25, 50 and 100 µM) in 20 mM TRIS, pH 8.2 were added to DMPC vesicles (0.5 mg/ml) prepared by sonication in PBS and turbidity was monitored in a Victor^3 plate reader (Perkin Elmer, USA) by monitoring absorbance at 660 nm for 1 h at 24°C. Samples were shaken at 300 RPM. Absorbance over time was plotted and areas-under-the-curve (AOC) were calculated. PBS was used as a negative control sample and Triton X-100 at a final concentration of 1% (w/v) was used as positive control.
# Sequence of Proteinase K (P06873 106-384): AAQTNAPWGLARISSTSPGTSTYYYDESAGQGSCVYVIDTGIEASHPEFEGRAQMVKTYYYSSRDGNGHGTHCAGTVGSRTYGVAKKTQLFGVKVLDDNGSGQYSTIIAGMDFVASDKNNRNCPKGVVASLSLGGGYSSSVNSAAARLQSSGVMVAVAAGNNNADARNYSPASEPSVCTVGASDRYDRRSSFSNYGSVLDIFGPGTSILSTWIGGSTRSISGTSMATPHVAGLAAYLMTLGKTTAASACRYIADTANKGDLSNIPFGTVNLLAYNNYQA
Compound,EC50 (LPL from bovine milk [1]) [µM],LPL activity by isothermal titration calorimetry (human LPL),alpha-helical secondary structure by CD [2] [%],intact full-length peptide after trypsin incubation (trypsin),intact full-length peptide after Proteinase K incubation (Proteinase K; pH 8.2),intact full-length peptide after pepsin incubation (Pepsin),ability to activate LPL after pepsin treatment (LPL from bovine milk [3]),reduction in plasma triglycerides (Apoc2^h/h mice [4]; 3 h after injection) [%],plasma cholesterol (Apoc2^h/h mice [4]),plasma TG (Apoc2^h/h mice [5]),plasma TG (hAPOC3-tg mice),"in vitro LPL activation, dose response (result in words) (LPL from bovine milk [1]; 0-2 µM peptide, bovine milk LPL, ApoC2-deficient plasma substrate, 37°C 1 h, NEFA read-out, triplicates)",DMPC vesicle solubilization [6],"intact full-length peptide after Proteinase K incubation (Proteinase K; peptide 0.1 mM, 16 ug/kg Proteinase K, 20 mM ammonium bicarbonate pH 8.2, 37°C, MALDI-TOF with internal standards, first time point 3 h, triplicates)"
"CC[C@H](C)[C@H](NC(=O)CNC(=O)[C@@H](NC(=O)[C@H](Cc1ccc(O)cc1)NC(=O)[C@@H](NC(=O)[C@H](CO)NC(=O)[C@@H](NC(=O)[C@H](C)NC(=O)[C@@H]1CCCN1C(=O)[C@@H](NC(=O)[C@H](Cc1ccccc1)NC(=O)[C@H](CCCCN)NC(=O)[C@H](CCC(=O)O)NC(=O)[C@H](Cc1ccc(O)cc1)NC(=O)[C@H](CC(C)C)NC(=O)[C@H](CC(=O)O)NC(=O)[C@H](CCCNC(=N)N)NC(=O)[C@H](CC(C)C)NC(=O)[C@H](CCCCN)NC(=O)[C@H](CCC(=O)O)NC(=O)[C@H](Cc1ccccc1)NC(=O)[C@@H](NC(=O)[C@H](CCC(=O)O)NC(=O)[C@H](CCCCN)NC(=O)[C@H](CC(C)C)NC(=O)[C@H](Cc1ccc(O)cc1)NC(=O)[C@@H](N)CC(=O)O)C(C)C)[C@@H](C)O)C(C)C)[C@@H](C)O)[C@@H](C)O)C(=O)N[C@@H](Cc1ccccc1)C(=O)N[C@H](C(=O)N[C@@H](CC(=O)O)C(=O)N[C@@H](CCC(N)=O)C(=O)N[C@H](C(=O)N[C@@H](CC(C)C)C(=O)N[C@@H](CO)C(=O)N[C@H](C(=O)N[C@@H](CC(C)C)C(=O)N[C@@H](CCCCN)C(=O)NCC(=O)N[C@@H](CCC(=O)O)C(=O)N[C@@H](CCC(=O)O)C(=O)O)C(C)C)C(C)C)[C@@H](C)O [D6PV, reference compound] (H-DYLKEVFEKLRDLYEKFTPAVSTYTGIFTDQVLSVLKGEE-OH; N-terminus assumed)",0.107,doubled the activity of LPL,42,essentially no intact peptide was detected,essentially no intact peptide was detected,No intact peptide was observed,almost completely inactive,> 90,lowered plasma cholesterol,markedly lowered TG,lowered TG,,,
CCCC[C@H](NC(=O)[C@H](C)NC(C)=O)C(=O)N[C@]1(C)CCCCCCC=CCCCC2(CCCC=CCCCCCC[C@@](C)(C(=O)N[C@@H](CCCCN)C(=O)N(C)CC(=O)N[C@H](CCC(=O)O)C(=O)N[C@H](CCC(=O)O)C(=O)O)NC(=O)[C@H](C(C)C)NC(=O)[C@H](CO)NC(=O)[C@H](CC(C)C)NC(=O)[C@H](C(C)C)NC(=O)[C@H](CCC(N)=O)NC(=O)[C@H](CC(=O)O)NC2=O)NC(=O)[C@H](Cc2ccccc2)NC(=O)[C@H]([C@@H](C)CC)NC(=O)CNC(=O)[C@H]([C@@H](C)O)NC(=O)[C@H](Cc2ccc(O)cc2)NC(=O)[C@H]([C@@H](C)O)NC1=O (stereo partly drawn) [SP2],,,46,resistant to both proteases,,resistant to proteolysis,fully active,,,,,slightly more potent than SP1,most effective in solubilizing DMPC vesicles,resistant to both proteases
